Measured values as given in patent publication US8268856B2, “Method to use compositions having antidepressant anxiolytic and other neurological activity and compositions of matter” (priority 2007, dated 2012).

Columns and labels:
HCV = assay: Activity against HCV
[1] = test system: Mycobacterium tuberculosis; assay: Activity against Mycobacterium tuberculosis
serotonin receptors = assay: Affinity to serotonin receptors (receptor binding panel); design: species or system human or rodent
Description: Evaluation of binding affinity of isolated compounds to serotonin receptors. In vitro testing of isolated compounds was completed using a small panel of receptor binding assays and then validated in a comprehensive panel by the NIMH Psychoactive Drug Screening Program. Pharmacological and functional screening of isolated molecules was performed on cloned human or rodent CNS receptors, channels, and transporters. Hu, J-F., et al. New Antiinfective and Human 5-HT2 Receptor Binding Natural and Semisynthetic Compounds from the Jamaican Sponge Smenospongia aurea. 65 Jour. of Nat. Prod. 476-80 (2002).
(§1) Porsolt R D, et al. Behavioral Despair In Mice: A Primary Screening Test for Antidepressants, 229 Arch. Int. Pharmacodyn. 327-36 (1977). […] In order to control for false positives, as has been previously observed with psychostimulants, Cryan, J., et al. Assessing Substrates Underlying The Behavioral Effects Of Antidepressants Using The Modified Rat Forced Swimming Test. 29 Neurosci Biobehav Rev. 547-69 (2005) locomotor activity of the animals was monitored using an automated photobeam activity monitoring system. Lucki. I. The Forced Swimming Test As A Model For Core And Component Behavioral Effects Of Antidepressant Drugs. 8 Behav. Pharmacol. 522-32 (1997).

male Swiss Webster mice [2] = assay: Porsolt forced swim test (FST); assay type: in vivo, mouse; settings: male Swiss Webster mice, IP, immobility during last 4 min of 6 min swim, versus vehicle
Description: (§2) Locomotor Activity and the FST. To evaluate the isolated compounds for antidepressant-like activity, male Swiss Webster mice (Harlan, Indianapolis, Ind.) (25-30 g weight) were used. Animals were housed in groups of five with a 12 h light/12 h dark cycle. Food and water were provided at libitum. All procedures involving animals were performed as approved by the Institutional Animal Care and Use Committee of the University of Mississippi. Animals were randomly divided into groups (n=6-10/group). Each group was injected IP with either the compound (1-20 mg/kg), desipramine (20 mg/kg), or vehicle (saline, 10% ethanol or 10% ethanol/1% DMSO). Following injection, locomotor activity was monitored using an automated activity monitoring system (San Diego Instruments, San Diego, Calif.). Each mouse was placed in a Plexiglas enclosure and locomotor activity was recorded as the number of photobeam interruptions for 30 min after drug injection. The activity for the last ten min was quantified and analyzed. Immediately at the end of the locomotor session, individual mice were subjected to the FST. The mice were individually placed in a clear plastic cylinder (23 cm high, 10 cm internal diameter) filled with deionized water (8 cm high) at 25° C. The mice were recorded with a video camera (positioned at about 30 cm above the cylinder) for a total of 6 min. The total period of immobility during the last 4 min was timed by three independent observers. The mean immobility time was then calculated. A mouse was judged to be immobile when it remained afloat, making only minimal movements to keep its head above water.
For the FST, immobility times of the three independent rates were averaged for each mouse and data were analyzed using one way analysis of variance (ANOVA) followed by Bonferroni Multiple comparison posthoc tests to determine statistical differences from the corresponding vehicle control. Chick distress vocalization data were analyzed by two-way repeated measures ANOVA, one-way ANOVA and simple effects analyses with post-hoc comparisons conducted using Fisher's LSD test. p-Values less than 0.05 were considered statistically significant.
as §1

HIV-1 = assay: Activity against HIV-1
male Swiss Webster mice [3] = assay: Locomotor activity test, Swiss Webster mice; assay type: in vivo, mouse; settings: IP, photobeam interruptions, versus vehicle
Description: as §2
Effect of select compounds on locomotor activity. Since reductions in immobility time is the primary criterion to assess antidepressant like activity in both the FST and TST, it is crucial to confirm that the effects observed in both tests are not attributed to specific stimulant action of the tested compounds, which would be reflected as enhancement of the locomotor activity. Accordingly, the effect of tested compounds on locomotor activity was evaluated using an automated activity monitoring system.

## Cc1nccc2c1C(C)(C)Nc1cc(Br)ccc1-2 [Veranamine, 8-bromo-4,5,5-trimethyl-5,6-dihydrobenzo[c][2,7]naphthyridine]
HCV
  activity against HCV: not active
[1]
  activity against Mycobacterium tuberculosis: not active
Serotonin receptors
  affinities to serotonin receptors: moderate affinities
Male Swiss Webster mice [2]
  antidepressant-like activity / effect on immobility time in FST: potent antidepressant activity at the dose of 20 mg/kg
HIV-1
  activity against HIV-1: not active
Male Swiss Webster mice [3]
  effect on locomotor activity: not the consequence of its stimulant activity
